{"source": "ChEMBL document CHEMBL1201862", "about": "“PubChem BioAssay data set” (2004)", "key": {"[1]": {"biological_target": "T1, Hexokinase HKDC1 (Homo sapiens, UniProt Q2TB90)", "T1 sequence (Q2TB90 whole entry)": "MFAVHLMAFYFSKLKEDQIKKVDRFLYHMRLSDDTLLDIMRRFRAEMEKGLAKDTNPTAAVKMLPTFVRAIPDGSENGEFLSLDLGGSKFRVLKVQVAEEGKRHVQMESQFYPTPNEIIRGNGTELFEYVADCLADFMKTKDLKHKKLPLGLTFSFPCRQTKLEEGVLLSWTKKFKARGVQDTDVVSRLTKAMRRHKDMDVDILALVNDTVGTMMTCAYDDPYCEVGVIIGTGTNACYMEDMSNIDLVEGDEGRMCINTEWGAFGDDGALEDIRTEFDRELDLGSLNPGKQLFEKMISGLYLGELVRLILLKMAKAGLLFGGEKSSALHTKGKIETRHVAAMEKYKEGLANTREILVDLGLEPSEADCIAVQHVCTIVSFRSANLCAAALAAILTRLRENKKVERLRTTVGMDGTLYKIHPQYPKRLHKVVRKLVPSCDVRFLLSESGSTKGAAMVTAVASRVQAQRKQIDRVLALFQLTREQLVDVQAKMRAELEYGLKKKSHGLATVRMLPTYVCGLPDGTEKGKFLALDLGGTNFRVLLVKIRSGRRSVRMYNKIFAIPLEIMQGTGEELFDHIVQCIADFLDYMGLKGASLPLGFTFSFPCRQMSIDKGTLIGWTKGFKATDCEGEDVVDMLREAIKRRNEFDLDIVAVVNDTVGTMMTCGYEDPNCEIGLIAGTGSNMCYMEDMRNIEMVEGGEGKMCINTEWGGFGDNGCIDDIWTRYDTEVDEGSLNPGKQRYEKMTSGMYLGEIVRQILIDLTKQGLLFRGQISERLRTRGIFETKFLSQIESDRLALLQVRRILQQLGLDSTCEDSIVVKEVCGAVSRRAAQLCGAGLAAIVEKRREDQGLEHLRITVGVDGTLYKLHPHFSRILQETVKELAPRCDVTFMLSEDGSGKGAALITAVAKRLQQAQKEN", "experiment": "SAR analysis of small molecule inhibitors of hexokinase domain containing I (HKDC1). [Related pubchem assays (depositor defined):AID493160, AID493190]", "format": "functional"}, "[2]": {"biological_target": "Eukaryotic translation initiation factor 4E (Mus musculus, UniProt P63073)", "sequence (P63073 whole entry)": "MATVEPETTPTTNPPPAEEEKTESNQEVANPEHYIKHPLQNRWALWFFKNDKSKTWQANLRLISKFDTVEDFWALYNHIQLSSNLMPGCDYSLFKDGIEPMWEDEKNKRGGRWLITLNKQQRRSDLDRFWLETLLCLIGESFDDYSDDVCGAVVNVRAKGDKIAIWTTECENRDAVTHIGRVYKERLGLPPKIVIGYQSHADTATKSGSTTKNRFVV", "experiment": "eIF4E–eIF4G protein interaction inhibitors, dose response, biochemical, TR-FRET (AID 855);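 also: potency for disrupting eIF4E binding to eIF4GI seen as loss of FRET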", "format": "functional"}, "[3]": {"biological_target": "T2, Hexokinase-1 (Homo sapiens, UniProt P19367)", "T2 sequence (P19367 whole entry)": "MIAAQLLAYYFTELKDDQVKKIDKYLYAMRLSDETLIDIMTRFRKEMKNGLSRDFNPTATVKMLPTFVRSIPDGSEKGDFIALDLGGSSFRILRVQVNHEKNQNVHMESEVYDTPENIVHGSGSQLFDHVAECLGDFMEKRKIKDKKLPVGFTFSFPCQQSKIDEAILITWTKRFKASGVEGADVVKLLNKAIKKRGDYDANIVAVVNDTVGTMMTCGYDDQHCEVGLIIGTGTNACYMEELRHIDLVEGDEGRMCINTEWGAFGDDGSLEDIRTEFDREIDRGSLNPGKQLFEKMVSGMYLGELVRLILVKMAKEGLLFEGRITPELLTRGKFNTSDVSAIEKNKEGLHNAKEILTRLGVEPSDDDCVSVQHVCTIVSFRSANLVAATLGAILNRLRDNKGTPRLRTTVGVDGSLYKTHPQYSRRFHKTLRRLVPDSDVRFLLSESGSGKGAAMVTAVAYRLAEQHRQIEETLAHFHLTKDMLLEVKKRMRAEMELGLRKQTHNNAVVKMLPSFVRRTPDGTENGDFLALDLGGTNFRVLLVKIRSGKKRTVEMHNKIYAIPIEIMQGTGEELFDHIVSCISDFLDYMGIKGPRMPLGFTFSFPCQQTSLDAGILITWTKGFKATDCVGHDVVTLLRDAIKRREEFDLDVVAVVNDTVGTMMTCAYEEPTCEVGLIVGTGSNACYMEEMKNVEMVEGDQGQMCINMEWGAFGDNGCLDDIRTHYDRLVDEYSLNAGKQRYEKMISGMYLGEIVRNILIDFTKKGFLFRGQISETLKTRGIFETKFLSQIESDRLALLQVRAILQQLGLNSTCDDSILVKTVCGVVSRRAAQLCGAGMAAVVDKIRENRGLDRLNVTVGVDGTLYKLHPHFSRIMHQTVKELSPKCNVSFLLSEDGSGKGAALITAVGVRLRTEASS", "experiment": "SAR analysis of small molecule inhibitors of hexokinase domain containing I (HKDC1) in the hexokinase 1 selectivity assay. [Related pubchem assays (depositor defined):AID493160, AID493190]", "format": "functional"}, "[4]": {"biological_target": "Cytochrome P450 3A4 (Homo sapiens, UniProt P08684)", "sequence (P08684 whole entry)": "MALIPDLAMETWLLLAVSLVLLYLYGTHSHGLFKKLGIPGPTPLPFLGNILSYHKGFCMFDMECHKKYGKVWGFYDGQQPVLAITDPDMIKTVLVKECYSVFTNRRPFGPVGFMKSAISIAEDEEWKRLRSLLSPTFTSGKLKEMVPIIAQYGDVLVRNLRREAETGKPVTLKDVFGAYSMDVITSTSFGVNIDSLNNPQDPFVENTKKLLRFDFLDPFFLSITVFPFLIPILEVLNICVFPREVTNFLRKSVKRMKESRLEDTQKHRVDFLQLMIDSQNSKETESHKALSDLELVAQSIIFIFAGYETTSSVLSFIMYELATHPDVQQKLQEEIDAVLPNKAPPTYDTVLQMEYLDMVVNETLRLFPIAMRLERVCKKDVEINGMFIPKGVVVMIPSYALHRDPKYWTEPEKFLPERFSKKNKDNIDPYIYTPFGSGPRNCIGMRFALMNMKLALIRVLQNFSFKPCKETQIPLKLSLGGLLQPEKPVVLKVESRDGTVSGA"}, "[5]": {"system": "Streptococcus sp. 'group A'", "experiment": "growth inhibition of control SK(-) GAS strain, dose response, counter-screen for streptokinase expression inhibitor project, luminescence, kanamycin, BacTiterGlo, confirmation (AID 1900)", "format": "functional, organism-based"}, "[6]": {"system": "HEK293", "experiment": "NOD2 signaling inhibitors in MDP-stimulated cells, cell-based, uHTS, luminescence (AID 2001)", "format": "functional", "details": "Homo sapiens"}, "[7]": {"system": "HEK293", "experiment": "cells", "format": "functional, cell-based", "details": "Homo sapiens"}, "[8]": {"system": "Streptococcus", "experiment": "Group A Streptococcus viability loss, dose response, counter-screen for streptokinase expression inhibitor project, luminescence, BacTiterGlo (AID 1915);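 also: potency for reduction of bacterial viability or growth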", "format": "functional, organism-based"}, "[9]": {"system": "HEK293", "experiment": "cells", "details": "Homo sapiens"}, "[10]": {"biological_target": "T3, Nucleotide-binding oligomerization domain-containing protein 1 (Homo sapiens, UniProt Q9Y239)", "T3 sequence (Q9Y239 whole entry)": "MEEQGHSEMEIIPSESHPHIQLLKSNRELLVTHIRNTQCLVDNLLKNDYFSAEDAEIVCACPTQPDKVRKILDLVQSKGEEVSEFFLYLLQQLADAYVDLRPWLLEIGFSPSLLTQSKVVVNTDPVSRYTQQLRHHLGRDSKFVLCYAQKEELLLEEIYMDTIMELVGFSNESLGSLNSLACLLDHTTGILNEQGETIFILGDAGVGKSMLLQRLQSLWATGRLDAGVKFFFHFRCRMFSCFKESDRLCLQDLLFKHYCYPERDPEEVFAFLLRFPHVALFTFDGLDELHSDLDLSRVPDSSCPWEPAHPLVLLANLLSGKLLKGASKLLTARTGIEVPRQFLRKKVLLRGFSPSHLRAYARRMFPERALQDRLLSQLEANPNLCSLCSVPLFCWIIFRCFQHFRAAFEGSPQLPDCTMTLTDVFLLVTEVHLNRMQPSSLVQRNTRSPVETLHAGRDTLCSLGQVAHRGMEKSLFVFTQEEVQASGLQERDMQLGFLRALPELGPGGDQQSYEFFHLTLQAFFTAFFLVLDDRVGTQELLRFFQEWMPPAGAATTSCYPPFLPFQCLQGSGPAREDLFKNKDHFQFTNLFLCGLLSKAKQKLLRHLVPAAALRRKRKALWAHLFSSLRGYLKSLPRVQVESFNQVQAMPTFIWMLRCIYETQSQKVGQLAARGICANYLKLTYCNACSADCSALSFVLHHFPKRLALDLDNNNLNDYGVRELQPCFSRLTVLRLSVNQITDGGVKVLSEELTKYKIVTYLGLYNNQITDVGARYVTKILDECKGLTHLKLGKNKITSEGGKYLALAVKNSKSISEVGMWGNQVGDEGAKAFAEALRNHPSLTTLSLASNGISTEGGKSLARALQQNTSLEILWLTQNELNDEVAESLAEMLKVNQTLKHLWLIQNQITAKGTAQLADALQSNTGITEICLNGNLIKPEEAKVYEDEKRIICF", "experiment": "NOD1 signaling inhibitors, SAR follow-up, revised (AID 2333)", "format": "functional"}, "[11]": {"system": "HEK293", "experiment": "cells", "format": "functional, cell-based", "details": "Homo sapiens", "remark": "listed apart in the source"}, "[12]": {"biological_target": "T4, Streptokinase A (Streptococcus pyogenes serotype M1, UniProt P10520)", "T4 sequence (P10520 whole entry)": "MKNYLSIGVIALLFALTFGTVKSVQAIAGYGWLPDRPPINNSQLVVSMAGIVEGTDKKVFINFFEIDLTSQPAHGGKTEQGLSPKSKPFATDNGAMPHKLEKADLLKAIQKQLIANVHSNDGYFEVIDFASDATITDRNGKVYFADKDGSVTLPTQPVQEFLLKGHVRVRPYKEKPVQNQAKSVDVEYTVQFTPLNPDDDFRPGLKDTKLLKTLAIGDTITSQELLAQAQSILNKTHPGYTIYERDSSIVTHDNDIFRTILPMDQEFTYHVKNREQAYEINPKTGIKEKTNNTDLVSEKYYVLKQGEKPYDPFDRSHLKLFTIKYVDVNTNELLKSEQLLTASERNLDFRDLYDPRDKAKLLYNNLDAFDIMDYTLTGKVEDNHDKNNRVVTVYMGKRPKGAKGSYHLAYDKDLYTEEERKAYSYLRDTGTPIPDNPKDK", "experiment": "S. pyogenes streptokinase expression inhibitors, potency, dose response, plasminogen activation absorbance, OD405 (AID 1914);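 also: secreted streptokinase activity via plasminogen activation per viability signal from cell pellet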", "format": "functional, Streptococcus pyogenes M1 GAS"}, "[13]": {"biological_target": "Tumor necrosis factor (Homo sapiens, UniProt P01375)", "sequence (P01375 whole entry)": "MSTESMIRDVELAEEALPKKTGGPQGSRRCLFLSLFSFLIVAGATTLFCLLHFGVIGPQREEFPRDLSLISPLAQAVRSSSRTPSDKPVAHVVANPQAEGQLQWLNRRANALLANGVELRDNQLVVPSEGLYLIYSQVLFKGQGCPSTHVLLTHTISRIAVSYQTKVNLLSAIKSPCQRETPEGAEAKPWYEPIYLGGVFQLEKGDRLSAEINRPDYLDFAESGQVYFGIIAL", "experiment": "TNFa-triggered NF-kB activation inhibitors, SAR follow-up, cell-based, revised (AID 2337)", "format": "functional"}, "[14]": {"system": "HEK293", "experiment": "NOD1 signaling inhibitors, primary screen, cell-based, luminescence, uHTS (AID 1578)", "format": "functional", "details": "Homo sapiens"}}, "note": "The source made the active and inactive calls.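 For AC50 in this document: CYP3A4 tested as one member of a cytochrome P450 panel screen.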"}
{"smiles": "O=C(Nc1nnc(SCc2ccc(F)cc2)s1)c1ccc2ncsc2c1", "values": [{"measurement": "IC50", "setting": "[1]", "value": "12 µM (active)"}, {"measurement": "IC50", "setting": "[2]", "value": "26.2 µM (active)"}, {"measurement": "IC50", "setting": "[3]", "value": "> 80 µM (inactive)"}]}
{"smiles": "CCOC(=O)N1CCN(c2nc(-c3cccs3)cc(C(F)(F)F)n2)CC1", "values": [{"measurement": "AC50", "setting": "[4]", "value": "inconclusive"}]}
{"smiles": "Cc1ccccc1/C=C1\\Sc2ccc(C(=O)N3CCN(c4ccccn4)CC3)cc2N(C)C1=O", "values": [{"measurement": "EC50", "setting": "[5]", "value": "4.49 µM (active)"}, {"measurement": "IC50", "setting": "[6]", "value": "6.78 µM (active)"}, {"measurement": "IC50", "setting": "[7]", "value": "5.97 µM (active)"}, {"measurement": "EC50", "setting": "[8]", "value": "16.6 µM (active)"}, {"measurement": "IC50", "setting": "[9]", "value": "10.8 µM (active)"}, {"measurement": "IC50", "setting": "[10]", "value": "4.28 µM (active)"}, {"measurement": "IC50", "setting": "[11]", "value": "7.21 µM (active)"}, {"measurement": "EC50", "setting": "[12]", "value": "> 150 µM (not active)"}, {"measurement": "IC50", "setting": "[13]", "value": "6.22 µM (active)"}, {"measurement": "EC50", "setting": "[14]", "value": "8.18 µM (active)"}]}
{"smiles": "NC(=O)CN1CCOCCOCCOCCOCCOCC1", "values": [{"measurement": "AC50", "setting": "[4]", "value": "inconclusive"}]}
{"smiles": "COCC(=O)N1CCC2(CC1)CCN(c1ccc(-c3ccccc3)cc1)CC2", "values": [{"measurement": "AC50", "setting": "[4]", "value": "inconclusive"}]}
{"smiles": "O=C(O)CSc1cc(NS(=O)(=O)c2ccccc2)c2ccccc2c1O", "values": [{"measurement": "IC50", "setting": "[1]", "value": "4.84 µM (active)"}, {"measurement": "IC50", "setting": "[3]", "value": "> 80 µM (inactive)"}]}
{"smiles": "Cc1nc(C)c(C(=O)Nc2cccc(C(=O)Nc3cccc(C(F)(F)F)c3)c2)s1", "values": [{"measurement": "IC50", "setting": "[1]", "value": "> 80 µM (inactive)"}, {"measurement": "IC50", "setting": "[3]", "value": "> 80 µM (inactive)"}]}
